Laboratory results taken from BindingDB's records for doi:10.1021/jm050175p (Wyeth Research, 2005).

Molecular target: Tyrosine-protein kinase ABL1 (Homo sapiens, UniProt P00519)
Assay: Homogeneous Time-resolved Fluorescence (HTRF) Assay

Sequence of Tyrosine-protein kinase ABL1 (P00519 whole entry): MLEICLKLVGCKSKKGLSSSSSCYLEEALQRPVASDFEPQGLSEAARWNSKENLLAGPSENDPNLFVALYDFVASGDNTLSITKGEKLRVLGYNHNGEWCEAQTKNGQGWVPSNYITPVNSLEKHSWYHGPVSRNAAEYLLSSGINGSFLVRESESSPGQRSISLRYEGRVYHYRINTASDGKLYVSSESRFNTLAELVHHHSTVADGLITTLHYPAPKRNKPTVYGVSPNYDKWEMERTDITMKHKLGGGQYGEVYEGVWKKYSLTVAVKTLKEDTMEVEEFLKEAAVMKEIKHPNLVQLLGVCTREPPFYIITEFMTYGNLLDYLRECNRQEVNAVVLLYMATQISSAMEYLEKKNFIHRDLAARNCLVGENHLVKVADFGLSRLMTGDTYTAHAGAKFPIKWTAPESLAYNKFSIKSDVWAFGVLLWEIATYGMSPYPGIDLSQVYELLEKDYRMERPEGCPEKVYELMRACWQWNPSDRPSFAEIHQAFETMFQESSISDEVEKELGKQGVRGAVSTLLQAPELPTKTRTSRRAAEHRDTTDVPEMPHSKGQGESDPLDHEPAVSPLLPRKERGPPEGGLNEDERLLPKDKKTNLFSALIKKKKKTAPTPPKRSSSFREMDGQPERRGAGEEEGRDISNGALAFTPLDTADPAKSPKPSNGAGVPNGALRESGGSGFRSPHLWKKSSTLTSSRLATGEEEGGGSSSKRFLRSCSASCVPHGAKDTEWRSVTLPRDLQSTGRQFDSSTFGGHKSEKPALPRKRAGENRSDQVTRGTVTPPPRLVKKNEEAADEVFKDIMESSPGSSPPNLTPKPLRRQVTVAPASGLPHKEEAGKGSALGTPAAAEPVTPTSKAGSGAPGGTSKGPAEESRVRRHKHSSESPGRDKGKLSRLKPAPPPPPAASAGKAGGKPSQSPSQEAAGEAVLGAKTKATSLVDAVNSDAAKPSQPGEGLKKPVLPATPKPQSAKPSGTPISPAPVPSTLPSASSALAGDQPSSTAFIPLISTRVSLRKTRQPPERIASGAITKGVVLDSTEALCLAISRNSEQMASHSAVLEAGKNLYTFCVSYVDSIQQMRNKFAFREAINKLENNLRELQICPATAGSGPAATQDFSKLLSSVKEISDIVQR

| Compound | IC50 |
| --- | --- |
| COc1cc(Nc2c(C#N)cnc3cc(OCC4CCCN(C)C4)c(OC)cc23)c(Cl)cc1Cl (centres undefined) [4-[(2,4-dichloro-5-methoxyphenyl)amino]-6-methoxy-7-[(1-methylpiperidin-3-yl)methoxy]quinoline-3-carbonitrile] | 4.6 nM |
| COc1cc(Nc2c(C#N)cnc3cc(OCC4CCCCN4C)c(OC)cc23)c(Cl)cc1Cl (centres undefined) [4-[(2,4-dichloro-5-methoxyphenyl)amino]-6-methoxy-7-[(1-methylpiperidin-2-yl)methoxy]quinoline-3-carbonitrile] | 56 nM |
| CCOc1cc(Nc2c(C#N)cnc3cc(OCC4CCN(C)CC4)c(OC)cc23)c(Cl)cc1Cl [4-[(2,4-Dichloro-5-ethoxyphenyl)amino]-6-methoxy-7-[(1-methylpiperidin-4-yl)methoxy]quinoline-3-carbonitrile] | 1500 nM |
| COc1cc(Nc2c(C#N)cnc3cc(OC4CCN(C)CC4)c(OC)cc23)c(Cl)cc1Cl [4-[(2,4-dichloro-5-methoxyphenyl)amino]-6-methoxy-7-[(1-methylpiperidin-4-yl)oxy]quinoline-3-carbonitrile] | 89 nM |
